The values below come from US7576094B2, “Spiro derivatives as lipoxygenase inhibitors” (Eli Lilly and Company, priority 2004, dated 2009).

By EC50 is commonly meant the midpoint of the concentration-response curve. One may read the IC50 as the point on the concentration scale where inhibition reaches its midpoint.

Assay [1] concerns LTB4 production in human whole blood. The experiment in a line: Inhibition of LTB4 Production in Blood. It is filed as cell-based. As to conditions: 1 h, 20 μM A23187, 60 minutes at 37° C., LTB4 in plasma by ELISA, read-out: protection against LTB4 at an EC50. Here is the method:
• Human whole blood (Na citrate) (Stanford Blood Center) • A23187, (Sigma, Cat# C-7522) • Leukotriene B4 EIA reagents (Cayman Chemical, Cat # 520111) • BWA4C (Sigma, Cat # B7559) Procedure Preparation of A23187:
A23187 was prepared as a 10 mM stock solution in DMSO (aliquots can be stored at −20° C.). On the day of the assay the stock solution was diluted as follows: 70 μL 10 mM stock added to 1.6 mL plasma to give a working concentration of 0.42 mM.
From a 30 mM stock solution in DMSO, test articles were diluted to a working concentration of 600 μM in PBS (i.e. 10 μL stock solution+490 μL PBS). This is the highest concentration (gives a final testing concentration of 30 μM). From this 600 μM solution test articles were serially diluted 1:3 in PBS to give a dose-response curve. 10 μL of each concentration of test article was then added to 4 wells of a 96-well plate (i.e. testing in quadruplicate). A positive control compound, BWA4C was used in every assay.
Human whole blood was added to the plates containing compounds (190 μL per well) and mixed well. The blood was incubated with compound at 37° C. for 15 minutes. Following this incubation, 10 μL of 0.42 mM A23187 was added to each well except the negative control wells to give a final calcium ionophore concentration of 20 μM. The plates were then incubated at 37° C. for 60 minutes. After the incubation period, plates were centrifuged for 15 min at 2000 g at 4° C. in sealed microplate buckets. Plasma was then removed for quantitation of LTB4 levels by ELISA.
LTB4 levels in the plasma were determined using a commercially available ELISA kit from Cayman Chemicals. The ELISA was run according to the manufacturer's instructions. The LTB4 levels in the vehicle control sample were then compared to those in which the test article had been added. From this a percent inhibition of LTB4 production by each concentration of test article was calculated and the IC50 was determined.
(In an ELISA, binding on a coated surface is turned into a signal by an enzyme label.)

The target of assay [2] is T1, human recombinant 5-Lipoxygenase (Homo sapiens, UniProt P09917).
T1 sequence (P09917 1-674): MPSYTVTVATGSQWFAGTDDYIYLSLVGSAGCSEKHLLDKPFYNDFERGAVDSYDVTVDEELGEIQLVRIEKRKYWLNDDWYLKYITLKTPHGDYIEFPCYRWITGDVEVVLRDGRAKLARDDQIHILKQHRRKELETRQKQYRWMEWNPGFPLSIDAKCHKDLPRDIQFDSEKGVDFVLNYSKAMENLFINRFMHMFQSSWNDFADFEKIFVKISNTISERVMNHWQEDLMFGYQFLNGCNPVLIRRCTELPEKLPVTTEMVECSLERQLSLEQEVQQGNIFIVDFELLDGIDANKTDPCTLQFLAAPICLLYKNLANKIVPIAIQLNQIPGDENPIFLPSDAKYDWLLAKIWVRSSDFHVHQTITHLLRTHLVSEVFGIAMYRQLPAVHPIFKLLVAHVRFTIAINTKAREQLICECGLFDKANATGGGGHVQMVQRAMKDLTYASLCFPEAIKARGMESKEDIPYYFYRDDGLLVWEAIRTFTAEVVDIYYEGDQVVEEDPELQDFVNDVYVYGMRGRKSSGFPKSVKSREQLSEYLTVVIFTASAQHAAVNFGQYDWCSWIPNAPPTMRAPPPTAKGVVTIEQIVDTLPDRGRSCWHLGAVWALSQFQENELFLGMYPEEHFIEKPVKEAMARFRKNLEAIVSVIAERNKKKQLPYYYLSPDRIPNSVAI
Kind of assay: 5-Lipoxygenase Enzyme Assay. The class given is biochemical. Particulars: 70 μM arachidonic acid, 10 minute incubation at room temperature, FOX reagent, absorbance at 620 nm; read-out: inhibition of 5-Lipoxygenase with an IC50. A digest of the protocol: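 Recombinant human 5-LOX in 50 mM Tris-HCl pH 7.4 was preincubated with compound, then 70 μM arachidonic acid was added for 10 min at room temperature. Hydroperoxide was read by FOX reagent (ferric xylenol orange, 1 h complex formation) as absorbance at 620 nm. Five concentrations in triplicate were tested, starting at 10 μM.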

In assay [3] the test system is release of the leukotriene LTB4 from a neutrophil cell line (MPRO cell line). The experiment in a line: LTB4-Cell Assay. It is filed as cell-based. Particulars: Mus musculus, 1 h, read-out: inhibition of LTB4 with an EC50. The source says: • This procedure was used for measuring the release of the leukotriene LTB4 from a neutrophil cell line using a competitive ELISA technique. Materials and Equipments Materials for Cell Preparation and Experiment • MPRO cell line (ATCC, Catalog # CRL-11422) • Calcium ionophore (A23187) (Sigma, Catalog # C7522) • Nordihydroguaiaretic acid (NDGA) (BioMol ,Catalog # EI101-0001) • Retinoic Acid (all-trans) (ATRA) (Sigma, Catalog # 95152) • Sterile, tissue-culture treated 96-well plates (Corning, Catalog # 3614) Materials for LTB4 ELISA • Precoated (Mouse Anti-Rabbit IgG) EIA 96 Well Strip Plates (Cayman, Catalog # 400004) • Leukotriene B4 AChE Tracer (Cayman Catalog # 420110) • Leukotriene B4 EIA Antiserum (Cayman Catalog # 420112) • Ellman's Reagent (Cayman Catalog # 400050) • EIA Buffer Concentrate (10×) (Cayman Catalog # 400060) • Wash Buffer Concentrate (400×) (Cayman Catalog # 400062) • Plastic plate covers (Cayman Catalog # 400012) Procedure
A mouse promyelocytic cell line (MPRO) was used in this assay. These cells are committed immature neutrophils that can be differentiated into mature neutrophils by treatment with 10 μM all-trans retinoic acid for 72 hours.
Following 72 hours of differentiation, cells were stimulated with 1 μM of a calcium ionophore (A23187) in the presence or absence of test compound or vehicle for 1 hour at 37° C. After this time, supernatant was removed from the cells and the LTB4 levels were determined following manufacturer's instructions, using a Leukotriene B4 EIA kit from Cayman (Cat # 5201 11). The negative controls were media samples from differentiated but un-stimulated cells. The compounds were screened at 5 concentrations in quadruplicate starting at 10 μM.

A value given as a limit tells only on which side of the number the result lay.

With `COCC1=Cc2c(C)c(O)c(C)c(C)c2OC12CCC2` [3-(methoxymethyl)-5,7,8-trimethylspiro[chromene-2,1′-cyclobutan]-6-ol], the EC50 in assay [1] was below 10 µM; in assay [3], below 5 µM. For the same compound, the IC50 in assay [2] is below 0.3 µM.
The corresponding values for `CCONC1CC2(CCC2)Oc2c(C)c(C)c(O)c(C)c21` (centres unmarked) [4-(ethoxyamino)-5,7,8-trimethyl-3,4-dihydrospiro[chromene-2,1′-cyclobutan]-6-ol] are below 10 µM, below 5 µM and below 0.3 µM.
Regarding `CCc1cc2c(c(CC)c1O)/C(=N/OC)CC1(CCC1)O2` [5,7-diethyl-6-hydroxyspiro[chromene-2,1′-cyclobutan]-4(3H)-one O-methyloxime], the 50% effective concentration (EC50) is below 10 µM in assay [1] and below 5 µM in assay [3]. Moreover, the IC50 in assay [2] is below 0.3 µM.
The corresponding values for `CCONCc1c(C)c(O)c(C)c2c1OC1(CCC1)CC2` [8-[(ethoxyamino)methyl]-5,7-dimethyl-3,4-dihydrospiro[chromene-2,1′-cyclobutan]-6-ol] are below 10 µM, below 5 µM and below 0.3 µM.
The corresponding values for `CONCc1c(C)c(O)c(C)c2c1OC1(CCC1)CC2` [8-[(methoxyamino)methyl]-5,7-dimethyl-3,4-dihydrospiro[chromene-2,1′-cyclobutan]-6-ol] are below 10 µM, below 5 µM and below 0.3 µM.
The corresponding values for `Cc1c(O)cc2c(c1C)OCC1(CC1)C2` [7,8-dimethylspiro[chroman-3,1′-cyclopropan]-6-ol] are below 10 µM, below 5 µM and below 0.3 µM.
As to `CCOC1c2c(C)c(O)c(C)c(C)c2OCC12CCC2` (centres unmarked) [4-ethoxy-5,7,8-trimethylspiro[chroman-3,1′-cyclobutan]-6-ol], the concentration for a half-maximal effect (EC50) in assay [1] is below 10 µM; in assay [3], below 5 µM. Besides, in assay [2], the IC50 was below 0.3 µM.
Take `COC1Cc2c(C)c(O)c(C)c(C)c2OC12CCC2` (centres unmarked) [3-methoxy-5,7,8-trimethyl-3,4-dihydrospiro[chromene-2,1′-cyclobutan]-6-ol]: the EC50 is below 10 µM in assay [1] and below 5 µM in assay [3].
As for `CONC1CC2(CCC2)Oc2cc(C)c(O)c(C)c21` (stereo in doubt) [(4R)-4-(methoxyamino)-5,7-dimethyl-3,4-dihydrospiro[chromene-2,1′-cyclobutan]-6-ol], the concentration giving a half-maximal response (EC50) in assay [1] is below 10 µM; in assay [3], below 5 µM. In addition, the 50% inhibitory concentration (IC50) in assay [2] is below 0.3 µM.
The corresponding values for `CC(C)c1cc2c(c(C(C)C)c1O)CCC1(CCC1)O2` [5,7-diisopropyl-3,4-dihydrospiro[chromene-2,1′-cyclobutan]-6-ol] are below 10 µM, below 5 µM and below 0.3 µM.
The corresponding values for `CCO/N=C1\CC2(CCC2)Sc2cc(C)c(O)c(C)c21` [6′-hydroxy-5′,7′-dimethylspiro[cyclobutane-1,2′-thiochromen]-4′(3′H)-one O-ethyloxime] are below 10 µM, below 5 µM and below 0.3 µM.
On to `CCc1cc2c(c(CC)c1O)CC(CO)C1(CCC1)O2` (centres unmarked) [5,7-diethyl-3-(hydroxymethyl)spiro[chroman-2,1′-cyclobutan]-6-ol], for which the EC50 in assay [1] is below 10 µM; in assay [3] it was below 5 µM.
In the case of `Cc1c(C)c2c(c(C)c1O)C(=NO)CC1(CCC1)O2` [6-hydroxy-5,7,8-trimethylspiro[chromene-2,1′-cyclobutan]-4(3H)-one oxime], the values for the concentration giving a half-maximal response (EC50) in assay [1] and in assay [3] were below 10 µM and below 5 µM, respectively.
The corresponding values for `CCONCC1Cc2c(cc(C)c(O)c2C)OC12CCC2` (centres unmarked) [3-[(ethoxyamino)methyl]-5,7-dimethyl-3,4-dihydrospiro-[chromene-2,1′-cyclobutan]-6-ol] are below 10 µM and below 5 µM.
The corresponding values for `CONCC1=Cc2c(cc(C)c(O)c2C)OC12CCC2` [3-[(methoxyamino)methyl]-5,7-dimethylspiro[chromene-2,1′-cyclobutan]-6-ol] are below 10 µM and below 5 µM.
With `CC1=Cc2c(C)c(O)c(C)c(C)c2OC12CCC2` [3,5,7,8-tetramethylspiro[chromene-2,1′-cyclobutan]-6-ol], the concentration giving a half-maximal response (EC50) in assay [1] was below 10 µM; in assay [3], below 5 µM.
The corresponding values for `Cc1c(C)c2c(c(C)c1O)CC(CO)C1(CCC1)O2` (centres unmarked) [3-(hydroxymethyl)-5,7,8-trimethyl-3,4-dihydrospiro[chromene-2,1′-cyclobutan]-6-ol] are below 10 µM and below 5 µM.
The corresponding values for `COC1c2c(C)c(O)c(C)c(C)c2OC2(CCC2)C1C` (centres unmarked) [4-methoxy-3,5,7,8-tetramethyl-3,4-dihydrospiro[chromene-2,1′-cyclobutan]-6-ol] are below 10 µM and below 5 µM.
With `C=Cc1c(C)c(O)c(C)c2c1OC1(CCC1)CC2` [5,7-dimethyl-8-vinyl-3,4-dihydrospiro[chromene-2,1′-cyclobutan]-6-ol], in assay [2], the half-inhibitory concentration (IC50) was below 0.3 µM. In addition, the concentration giving a half-maximal response (EC50) in assay [3] was below 5 µM.
With `CCc1cc2c(c(CC)c1O)CC(COC(N)=O)C1(CCC1)O2` (centres unmarked) [(5,7-diethyl-6-hydroxyspiro[chroman-2,1′-cyclobutane]-3-yl)methyl carbamate], the results for the concentration giving a half-maximal response (EC50) in assay [1] and in assay [3] were below 10 µM and below 5 µM, respectively.
The corresponding values for `Cc1c(C)c2c(c(C)c1O)CC(O)C1(CCC1)O2` (centres unmarked) [5,7,8-trimethyl-3,4-dihydrospiro[chromene-2,1′-cyclobutane]-3,6-diol] are below 10 µM and below 5 µM.
For the compound `CCc1c(O)c(C)c(C)c2c1/C(=N/OC)CC1(CCC1)O2` [5-ethyl-6-hydroxy-7,8-dimethylspiro[chromene-2,1′-cyclobutan]-4(3H)-one O-methyloxime], the 50% inhibitory concentration (IC50) in assay [2] is below 0.3 µM. In assay [3], the concentration for a half-maximal effect (EC50) was below 5 µM.
As for `Cc1c(C)c2c(c(C)c1O)C=C(C(C)O)C1(CCC1)O2` (centres unmarked) [3-(1-hydroxyethyl)-5,7,8-trimethylspiro[chromene-2,1′-cyclobutan]-6-ol], the EC50 in assay [1] was below 10 µM; in assay [3] it was below 5 µM.
